Columns and labels:
[1] = tested on: dissociated rat P5-9 CGN cultures; test: Cerebellar granule neuron (CGN) neurite outgrowth assay; assay type: cell-based; conditions: P7 rat CGNs
Procedure: Nitric acid-treated, 15-mm round German glass coverslips are coated with P-Orn in pH 6-8.5 borate buffer (at approximately 50 μg/ml) for about 1 hr at 37° C. and 5% CO2. CSPGs (at approximately 1 μg/ml) or polysaccharides enriched in the CS-A, CS-C, or CS-E sulfation motifs (at approximately 1 μg/ml) are coated on the P-Orn-coated coverslips overnight at 37° C. and 5% CO2. Cerebella from P5-9 Sprague Dawley rats are dissected, purified as described above, and cultured on the coated coverslips at a cell density of about 200 cells/mm^2. Neurons are grown in DMEM/F12, 1% FBS, and N1 supplement for about 24 hr.
In one example, inhibitors against MEK (PD98059, 25 μM; Calbiochem), EGFR (AG1478, 15 nM; Calbiochem), ROCK (Y27632, 5 μM; Calbiochem) and JNK (JNK Inhibitor II, 10 μM; Calbiochem) are added in solution at the start of culturing, and neurons are grown for 24 hr. For neurite outgrowth experiments from p75 knockout mice, cerebella from P5-7 mice, either C57BL/6 wild-type or p75−/− knockout mice, are dissected and purified as described above. Neurons are plated at a density of 200-300 cells/mm2 and cultured for about 24 hr. Cells are then fixed in 4% PFA/10% sucrose, immunostained with neuronal specific anti-class III β-tubulin antibody (TUJ1; Covance), and evaluated for neurite outgrowth. Neurons are imaged using a Nikon TE2000-S fluorescent microscope and quantified using the NIH software Image J. Statistical analysis is performed using the one-way ANOVA; n=50-200 cells per experiment.
P7 rat CGNs are grown for 24 hours on CS-E (1 μg/ml) in the presence of the CS-E antibody (CS-E Ab; 10 μg/ml).

[2] = tested on: Retinal ganglion cell axons; test: Optic nerve regeneration assay; conditions: counted at 125-μm intervals from the crush site
Procedure: At 1-14 days post injury, mice are given an overdose of pentobarbital and are transcardially perfused with 4% PFA. Eyeballs still attached with the optic nerve are dissected and post-fixed in 4% PFA overnight. Following cryoprotection with 30% sucrose in PBS, tissues are embedded in O.C.T. and serial sectioned for 5-20 μm along the longitudinal direction of the nerve. For immunofluorescence labeling, the sections are washed with PBS, pre-incubated in a blocking buffer (approximately 1% BSA, 0.3%TX-100 in PBS) and followed by sequential incubations with primary antibodies, including mouse anti-CS-E (1:200), goat-anti-CTB (1:4000), or rabbit anti-IβIII-tubulin antibodies (Invitrogen). […] The retinal cryosections are mounted with Vectashield and visualized under a Nikon fluorescence microscope. To quantify the number of CTB-positive regenerating axons, the number of regenerating axons is counted at 125 μm stepwise from the crush site of the optic nerve. The total number of regenerating axons is estimated. To quantify the number of surviving retinal ganglion cells, the total number of βIII-tubulin positive cells is counted in at least 3 retinal sections per retina.
(1.7 mg/ml) antibody treatment placed around the crush site of the nerve are studied. […] The extent of axonal regrowth is assessed 2 weeks after injury.

[3] = Oligosaccharide microarray; assay type: binding
Procedure: Ozonolysis of the anomeric allyl group and linkage of CS compounds 1-41,2 to 1,2-(bisaminooxy)ethane3 proceeds as follows: oligosaccharide (0.51 μmol) is dissolved in MeOH (500 μL) and cooled to −78° C. O3 is bubbled through the reaction until a blue color persists (1 min). The reaction is then purged with N2 until colorless, quenched with Ph3P beads (3 mg), and gradually warmed to rt over 12 h. The reaction is filtered and the product concentrated to afford the desired aldehyde as a white solid. The aldehyde (0.51 μmol) is then reacted for 14 h at rt with 1,2-(bisaminooxy)ethane hydrochloride (1.4 mg, 15 μmol) that has been dissolved in H2O (100 μL) and pH adjusted to 5.0 with 1 M NaOH. The resulting oxime product is purified using a SepPak C18 column (500 mg, H2O) and Sephadex G-10 (CS-E disaccharide, H2O) or Sephadex G-25 (tetrasaccharides, H2O) to afford a white solid in quantitative yield (0.51 μmol). CS-A aminooxy: ESI MS: m/z: calculated for C32H48N4Na3O31S2: 1117.1; found 1117.0. CS-C aminooxy: ESI MS: m/z: calculated for C32H48N4Na3O31S2: 1117.1; found 1117.0. CS-E aminooxy: ESI MS: m/z: calculated for C32H46N4Na5O37S4: 1321.0; found 1321.0. CS-E di amminooxy: ESI MS: m/z: calculated for C18H28N3Na2O20S2: 716.1; found 716.0. […]

[4] = Pull-down with biotinylated CS-E; assay type: binding; conditions: COS-7 cell lysates, immunoblot
Source text: Pull down assays can be useful for identifying proteins which bind to CS (e.g. CS-A, CS-C, or CS-E). Pull down assays can also be used for identifying agents that disrupt the binding between CS and a known binding partner. Full-length human p75 cDNA (amino acids 1-427; Open Biosystems) is ligated into a pcDNA3 vector (Invitrogen), modified to fuse an HA tag to the 5′ end of the insert. Human NgR (amino acids 27-473; imaGenes) is ligated into a modified pAPtag-5 vector (GenHunter) which fuses a secretion signal sequence and a c-myc tag to the 3′ end of the insert. COS-7 cells are transfected with either NgR-myc, p75-HA, or both using the Lipofectamine (Invitrogen) method. Cells are lysed about 2 days after transfection with 0.5-2% Triton X-100 in PBS containing a protease inhibitor mixture (Roche) by rocking for 15-90 min at 4° C. The lysates are clarified by centrifugation at 5-25,000 rpm for 1-30 min.
Biotin is attached to the free amino group of the residual core peptides of CS-C and CS-E polysaccharides (Seikagaku). […]
Biotinylated CS-C or CS-E (approximately 280 μg each) in 100-500 μl of PBS is added to streptavidin agarose resin (about 140 μl; Pierce) and incubated at room temperature for about 1 hr. […] NgR-myc and p75-HA are detected by immunoblotting with myc-tag (Cell Signaling) or HA-tag (Sigma) antibodies.

chondroitinaseABC
inhibition of neurite outgrowth after digestion of CS-E polysaccharides [1]: small extent of residual inhibition
number of regenerating axons compared with control IgG [2]: significantly more regenerating axons

B1: OMgp: oligodendrocyte myelin protein (OMgp) (protein, UniProt P23515 25-417, looked up)
Oligodendrocyte-myelin …: ICPLQCICTERHRHVDCSGRNLSTLPSGLQENIIHLNLSYNHFTDLHNQLTQYTNLRTLDISNNRLESLPAHLPRSLWNMSAANNNIKLLDKSDTAYQWNLKYLDVSKNMLEKVVLIKNTLRSLEVLNLSSNKLWTVPTNMPSKLHIVDLSNNSLTQILPGTLINLTNLTHLYLHNNKFTFIPDQSFDQLFQLQEITLYNNRWSCDHKQNITYLLKWMMETKAHVIGTPCSTQISSLKEHNMYPTPSGFTSSLFTVSGMQTVDTINSLSVVTQPKVTKIPKQYRTKETTFGATLSKDTTFTSTDKAFVPYPEDTSTETINSHEAAAATLTIHLQDGMVTNTSLTSSTKSSPTPMTLSITSGMPNNFSEMPQQSTTLNLWREETTTNVKTPLPS
binding to CS-E polysaccharides, oligosaccharide microarray [3]: bind to CS-E polysaccharides

B2: Full-length EphB3: full-length Ephrin receptor B3 (protein, UniProt P54753 1-998, looked up)
chain: MARARPPPPPSPPPGLLPLLPPLLLLPLLLLPAGCRALEETLMDTKWVTSELAWTSHPESGWEEVSGYDEAMNPIRTYQVCNVRESSQNNWLRTGFIWRRDVQRVYVELKFTVRDCNSIPNIPGSCKETFNLFYYEADSDVASASSPFWMENPYVKVDTIAPDESFSRLDAGRVNTKVRSFGPLSKAGFYLAFQDQGACMSLISVRAFYKKCASTTAGFALFPETLTGAEPTSLVIAPGTCIPNAVEVSVPLKLYCNGDGEWMVPVGACTCATGHEPAAKESQCRPCPPGSYKAKQGEGPCLPCPPNSRTTSPAASICTCHNNFYRADSDSADSACTTVPSPPRGVISNVNETSLILEWSEPRDLGGRDDLLYNVICKKCHGAGGASACSRCDDNVEFVPRQLGLTERRVHISHLLAHTRYTFEVQAVNGVSGKSPLPPRYAAVNITTNQAAPSEVPTLRLHSSSGSSLTLSWAPPERPNGVILDYEMKYFEKSEGIASTVTSQMNSVQLDGLRPDARYVVQVRARTVAGYGQYSRPAEFETTSERGSGAQQLQEQLPLIVGSATAGLVFVVAVVVIAIVCLRKQRHGSDSEYTEKLQQYIAPGMKVYIDPFTYEDPNEAVREFAKEIDVSCVKIEEVIGAGEFGEVCRGRLKQPGRREVFVAIKTLKVGYTERQRRDFLSEASIMGQFDHPNIIRLEGVVTKSRPVMILTEFMENCALDSFLRLNDGQFTVIQLVGMLRGIAAGMKYLSEMNYVHRDLAARNILVNSNLVCKVSDFGLSRFLEDDPSDPTYTSSLGGKIPIRWTAPEAIAYRKFTSASDVWSYGIVMWEVMSYGERPYWDMSNQDVINAVEQDYRLPPPMDCPTALHQLMLDCWVRDRNLRPKFSQIVNTLDKLIRNAASLKVIASAQSGMSQPLLDRTVPDYTTFTTVGDWLDAIKMGRYKESFVSAGFASFDLVAQMTAEDLLRIGVTLAGHQKKILSSIQDMRLQMNQTLPVQV
modifications: full-length
notes: full-length Ephrin receptor B3
pull-down by CS-E [4]: is pulled down

— patent US20110020359A1, “METHODS AND COMPOSITIONS FOR TREATING NEURONAL DAMAGE OR DEGENERATION” (California Institute of Technology, priority 2009, published 2011)
